Key:
[1] = rat, 60 min, 10 μmol/L, pH 7.4
Method: Glutathione ethyl ester (1 mmol/L, 1 μmol) was used as the trapping agent instead of the mixture of glutathione ethyl ester (GSHEE) and glutathione ethyl ester-d5 (GSHEE-d5), and the reaction and measurement were performed in the same manner as in (step 1) and (step 2) described above.
In the MS/MS measurement corresponding to (step 2-3), the MS/MS measurement was performed in a data dependent scan mode in which ions with the strongest intensity in a first spectrum were subjected to collisional activation to thereby obtain a second spectrum. The measurement conditions used are as follows (measurement conditions C).

[2] = for NUMBER OF IDENTIFIED REACTIVE METABOLITES (EXAMPLES): rat, 60 min, 10 μmol/L, pH 7.4
Method: (§1) NADPH (20 mmol/L, […]) was added to the pre-incubated incubation mixture and a reaction (incubation) was started. The final incubation volume was 1 mL. A sample containing no object compound was used as a control.
(§2) After incubation at 37° C. for 60 minutes, a 50 mmol/L aqueous dithiothreitol solution (100 μL, 5 μmol) was added to the incubation mixture, and the resultant mixture was subjected to centrifugation at 10,000 g for 5 minutes. The centrifugation supernatant was added to a solid phase extraction column (OASIS HLB 1 cc, 30 mg) that was pre-washed with 1 mL of methanol and activated with 1 mL of purified water. The column was washed with 1 mL of water and 1 mL of 5% methanol solution, and a reaction product was eluted with 1 mL of methanol. The solvent was removed by evaporation under nitrogen flow, and the residue was dissolved in 150 μL of acetonitrile:water (2:8) to prepare an analysis sample.
(§3) An AQCUITY UPLC system (WATERS) was used for separation by chromatography. Aliquots (10 μL) of the prepared analysis sample was injected into an AQCUITY UPLC BEH C18 column (2.1×100 mm, 1.7 μm). The separation by chromatography was performed under gradient conditions shown in the following table at a mobile phase flow rate of 0.5 mL/minute.
(§4) The LC column eluate obtained in step 2-1 was introduced into an LTQ XL ion trap mass spectrometer. Ionization was performed in an ESI positive mode (a mode for detecting positively charged ions). The measurement conditions used are shown below (measurement conditions A).
The measurement conditions used are shown below (measurement conditions B).
Among the peaks appearing in the final chromatogram, peaks other than the peaks also appearing in the final chromatogram for the control (FIG. 2 or 13) are considered to be the peaks of trapping agent-reactive metabolite adducts.

[3] = Reactive metabolite trapping test with glutathione ethyl ester only, data dependent scan mode with Dynamic Exclusion ON (Comparative Example 8); assay type: in vitro ADME; conditions: rat liver microsomes
Method: Omeprazole was used as the object compound. Measurement was performed in the same manner as in Comparative Example 1 except that the MS/MS measurement corresponding to (step 2-3) was performed in a data dependent scan mode (a Dynamic Exclusion ON mode) in which the MS/MS measurement was performed on ions in descending order of intensity. In the data dependent scan mode (Dynamic Exclusion ON mode), ions for a peak with the strongest intensity among the peaks in a first spectrum are subjected to MS/MS measurement three times. Then these ions are eliminated, and ions with the next strongest intensity are subjected to MS/MS measurement three times. This processing is repeated in order of intensity. The measurement conditions used are as follows (measurement conditions D).

[4] = rat, 60 min, 10 μmol/L, pH 7.4; remark: listed apart in the source
Method: as §1
as §2, with “minutes,” for “minutes, a 50 mmol/L aqueous dithiothreitol solution (100 μL, 5 μmol) was added to the incubation mixture, and”, “water,” for “solution,”
as §3, with “under the” for “under”, “TABLE 3” for “the following table”
as §4
The measurement conditions used are shown below (measurement conditions E).
Among the peaks appearing in the final chromatogram, peaks other than the peaks also appearing in the final chromatogram for the control (FIG. 46) are considered to be the peaks of trapping agent-reactive metabolite adducts.

Structure (SMILES)	NUMBER OF IDENTIFIED REACTIVE METABOLITES (COMPARATIVE EXAMPLES, GSHEE) [1]	judgement of reactive metabolite formation [2]	NUMBER OF IDENTIFIED REACTIVE METABOLITES (EXAMPLES) [2]	number of types of reactive metabolite found [3]	NUMBER OF IDENTIFIED REACTIVE METABOLITES (COMPARATIVE EXAMPLES, [13C2, 15N]GSH) [4]
O=C(O)Cc1ccccc1Nc1c(Cl)cccc1Cl [diclofenac]	1	–	–	–	–
COc1ccc2[nH]c([S+]([O-])Cc3ncc(C)c(OC)c3C)nc2c1 (centres unmarked) [omeprazole]	1	positive	2	one	2
O=C(O)COc1ccc(C(=O)c2cccs2)c(Cl)c1Cl [tienilic acid]	0	positive	1	–	1
O=c1c(O)c(-c2ccc(O)c(O)c2)oc2cc(O)cc(O)c12 [quercetin]	3	positive	3	–	2

Source: patent US9164075B2, “Glutathione alkylester isotopologue and method for detecting reactive metabolite” (priority 2011, dated 2015)
